Laboratory results as given in the supplement of paper PMC10307832.

How the values were obtained:
Assay in all cases: relative viability (nuclei count vs DMSO), 5 days (fraction); higher = more cells survive
[1] = compound: C=CC(=O)N1CCC[C@@H](n2nc(-c3ccc(Oc4ccccc4)cc3)c3c(N)ncnc32)C1 [Ibrutinib] + CC1(C)CCC(c2ccc(Cl)cc2)=C(CN2CCN(c3ccc(C(=O)NS(=O)(=O)c4ccc(N[C@H](CCN5CCOCC5)CSc5ccccc5)c(S(=O)(=O)C(F)(F)F)c4)cc3)CC2)C1 [Navitoclax] (partner 0.5 µM)
Method in brief: (§1)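 For relative viability, nuclei counts in treated wells were divided by those in vehicle wells. Lung cancer cell lines had been pin-tool dosed in 1536-well plates the day after seeding and cultured for 5 days, then fixed and stained in one step (final 0.05% Triton X-100, 1% formaldehyde, 1 ug/ml Hoechst) and imaged at 4×. Doses were one drug alone or a fixed anchor-drug dose plus five library-drug doses (not always all listed) in √10 steps, and values are duplicate-plate medians.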

[2] = compound: C=CC(=O)N1CCC[C@@H](n2nc(-c3ccc(Oc4ccccc4)cc3)c3c(N)ncnc32)C1 [Ibrutinib] + Cc1nc(Nc2ncc(C(=O)Nc3c(C)cccc3Cl)s2)cc(N2CCN(CCO)CC2)n1 [Dasatinib] (partner 0.075 µM)
Method in brief: as §1

[3] = compound: C=CC(=O)Nc1cc(-n2c(=O)ccc3cnc4ccc(-c5ccc(NS(C)(=O)=O)cc5)cc4c32)ccc1C [BMX-IN-1] + COc1cccc2cc(-c3nc([C@H]4CC[C@H](C(=O)O)CC4)n4ncnc(N)c34)[nH]c12 [OSI-027] (partner 0.5 µM)
Method in brief: as §1

[4] = compound: C=CCc1cccc(/C=N/NC(=O)CN2CCN(Cc3ccccc3)CC2)c1O [PAC-1] + C[C@]1(O)C[C@@H](c2nc(-c3ccc4ccc(-c5ccccc5)nc4c3)c3c(N)nccn32)C1 [Linsitinib] (partner 1 µM)
Method in brief: as §1

Row | Cell Line | relative viability ([1]; first compound 0.005 µM) | relative viability ([1]; first compound 0.01581 µM) | relative viability ([1]; first compound 0.05 µM) | relative viability ([1]; first compound 0.1581 µM) | relative viability ([1]; first compound 0.5 µM) | relative viability ([2]; first compound 0.005 µM) | relative viability ([2]; first compound 0.01581 µM) | relative viability ([2]; first compound 0.05 µM) | relative viability ([2]; first compound 0.1581 µM) | relative viability ([2]; first compound 0.5 µM) | relative viability ([3]; first compound 0.02 µM) | relative viability ([3]; first compound 0.2 µM) | relative viability ([3]; first compound 0.6325 µM) | relative viability ([3]; first compound 2 µM) | relative viability ([4]; first compound 0.02 µM) | relative viability ([4]; first compound 0.06325 µM) | relative viability ([4]; first compound 0.2 µM) | relative viability ([4]; first compound 2 µM)
1 | SK-LU-1 | 0.722 | 0.637 | 1.07 | 0.948 | 0.036 | 0.179 | 0.162 | 0.17 | 0.183 | 0.162 | 0.345 | 0.316 | 0.42 | 0.298 | 1.17 | 1.06 | 1.04 | 0.716
2 | PC-3 [JPC-3] | 0.82 | 0.805 | 0.598 | 0.824 | 0.488 | 0.865 | 0.862 | 0.774 | 0.979 | 0.327 | 0.783 | 0.887 | 0.84 | 0.793 | 1.04 | 0.965 | 0.948 | 0.97
3 | ChaGo-K-1 | 0.506 | 1.12 | 0.933 | – | 1.19 | 0.599 | 0.479 | 0.553 | 0.485 | 0.587 | 0.731 | 0.635 | 0.624 | 0.786 | – | – | – | –
4 | NCI-H3122 | 1.06 | 0.971 | 1.06 | 0.956 | 1.06 | 0.816 | 0.841 | 0.699 | 0.676 | 0.771 | 1.23 | 1.1 | 1.3 | 1.1 | 1.03 | 1.01 | 0.992 | 1.03
5 | NCI-H1703 | 0.896 | 0.96 | 1.05 | 1.17 | 0.731 | – | – | – | – | – | – | – | – | – | 0.646 | 0.423 | 0.765 | 0.932
6 | NCI-H2126 | – | 0.803 | 0.801 | 0.861 | 0.588 | 0.506 | 0.57 | 0.546 | 0.574 | 0.623 | 0.696 | 0.703 | 0.872 | 0.664 | 0.696 | 0.703 | 0.692 | 0.694
7 | NCI-H1993 | 0.807 | 0.7 | 0.75 | – | 0.742 | 0.504 | 0.658 | 0.532 | 0.53 | 0.56 | 0.546 | 0.6 | 0.489 | 0.476 | 0.735 | 0.797 | 0.745 | 0.701
8 | NCI-H1793 | – | 0.282 | 0.603 | 0.498 | 0.343 | – | 0.371 | 0.358 | 0.389 | 0.303 | 0.271 | 0.281 | 0.324 | 0.332 | 0.728 | 1.01 | 1.21 | 0.96
9 | NCI-H441 | 0.561 | 0.556 | 0.601 | 0.731 | 0.733 | 0.638 | 0.649 | 0.729 | 0.571 | 0.55 | 0.708 | 0.753 | 0.649 | 0.68 | 0.519 | 0.571 | 0.496 | 0.564
